Columns and labels:
Test in all cases: post-emergent herbicidal activity, greenhouse
Format in all cases: in vivo
Conditions in all cases: Table I
Velvetleaf = system: Velvetleaf
From the text: (§1) A good grade of top soil is placed in aluminum pans having holes in the bottom and compacted to a depth of 0.95 to 1.27 cm. from the top of the pan. A predetermined number of seeds of each of several dicotyledonous and monocotyledonous annual plant species and/or vegetative propagules for the perennial plant species were placed on the soil and pressed into the soil surface. The seeds and/or vegetative propagules are covered with soil and leveled. The pans are then placed on a sand bench in the greenhouse and watered from below as needed. After the plants reach the desired age (two to three weeks), each pan except for the control pans is removed individually to a spraying chamber and sprayed by means of an atomizer operating at a positive air pressure of approximately 1.46 kg/cm^2 absolute. The atomizer contains 6 ml. of a solution or suspension of the chemical. In that 6 ml., is an amount of a cyclohexanone emulsifying agent mixture to give a spray solution or suspension which contains about 0.4% by weight of the emulsifier. The spray solution or suspension contains a sufficient amount of the candidate chemical in order to give application rates corresponding to those set forth in the tables. The spray solution is prepared by taking an aliquot of a 1.0% by weight stock solution or suspension of the candidate chemical in an organic solvent such as acetone or tetrahydrofuran or in water. The emulsifying agent employed is a mixture comprising 35 weight percent butylamine dodecylbenzene sulfonate and 65 weight percent of a tall oil ethylene oxide condensate having about 11 moles of ethylene oxide per mole of tall oil. The pans are returned to the greenhouse and watered as before and the injury to the plants as compared to the control is observed at approximately two and four weeks as indicated in the tables under WAT and the results recorded. In some instances, the two-week observations are omitted.
(§2) The post-emergent herbicidal activity index used in Tables I and II is as follows: […]

Johnsongrass = system: Johnsongrass
From the text: as §1, §2

Downy Brome = system: Downy Brome
From the text: as §1, §2

Quackgrass = system: Quackgrass
From the text: as §1, §2

Canada Thistle = system: Canada Thistle
From the text: as §1, §2

Yellow Nutsedge = system: Yellow Nutsedge
From the text: as §1, §2

Cocklebur = system: Cocklebur
From the text: as §1, §2

Barnyardgrass = system: Barnyardgrass
From the text: as §1, §2

Lambsquarters = system: Lambsquarters
From the text: as §1, §2

Morningglory = system: Morningglory
From the text: as §1, §2

Smartweed = system: Smartweed
From the text: as §1, §2

Question: For `CCOC(=O)CNCP(=O)(OC(C)(C)C#N)OC(C)(C)C#N` [Example 2, glycine, N-[bis(1-cyano-1-methyl-ethoxy)phosphinylmethyl], ethyl ester], which “post-emergent herbicidal activity index” value (Velvetleaf; 2 WAT, 5.6 kg/h) is on record?
Answer: Its value is 0 (0-24% control).

Question: What about the “post-emergent herbicidal activity index” value (Velvetleaf; 4 WAT, 11.2 kg/h) of the same molecule?
Answer: Its value is 0 (0-24% control).

Question: What about the “post-emergent herbicidal activity index” value (Velvetleaf; 4 WAT, 56.0 kg/h) of the same molecule?
Answer: The value was 0 (0-24% control).

Question: What about the “post-emergent herbicidal activity index” value (Johnsongrass; 2 WAT, 5.6 kg/h) of the same molecule?
Answer: The value was 0 (0-24% control).

Question: And the “post-emergent herbicidal activity index” value (Johnsongrass; 4 WAT, 11.2 kg/h)?
Answer: The value was 0 (0-24% control).

Question: And the “post-emergent herbicidal activity index” value (Johnsongrass; 4 WAT, 56.0 kg/h)?
Answer: The value was 0 (0-24% control).

Question: What about the “post-emergent herbicidal activity index” value (Downy Brome; 2 WAT, 5.6 kg/h) of the same molecule?
Answer: Its value is 0 (0-24% control).

Question: And the “post-emergent herbicidal activity index” value (Downy Brome; 4 WAT, 11.2 kg/h)?
Answer: The value was 0 (0-24% control).

Question: What about the “post-emergent herbicidal activity index” value (Downy Brome; 4 WAT, 56.0 kg/h) of the same molecule?
Answer: Its value is 0 (0-24% control).

Question: And the “post-emergent herbicidal activity index” value (Quackgrass; 2 WAT, 5.6 kg/h)?
Answer: Its value is 0 (0-24% control).

Question: And the “post-emergent herbicidal activity index” value (Quackgrass; 4 WAT, 11.2 kg/h)?
Answer: Its value is 0 (0-24% control).

Question: What about the “post-emergent herbicidal activity index” value (Quackgrass; 4 WAT, 56.0 kg/h) of the same molecule?
Answer: Its value is 0 (0-24% control).

Question: And the “post-emergent herbicidal activity index” value (Canada Thistle; 4 WAT, 56.0 kg/h)?
Answer: Its value is 4 (100% control).

Question: What about the “post-emergent herbicidal activity index” value (Yellow Nutsedge; 2 WAT, 5.6 kg/h) of the same molecule?
Answer: Its value is 0 (0-24% control).

Question: And the “post-emergent herbicidal activity index” value (Yellow Nutsedge; 4 WAT, 11.2 kg/h)?
Answer: The value was 0 (0-24% control).

Question: What about the “post-emergent herbicidal activity index” value (Yellow Nutsedge; 4 WAT, 56.0 kg/h) of the same molecule?
Answer: The value was 0 (0-24% control).

Question: And the “post-emergent herbicidal activity index” value (Cocklebur; 2 WAT, 5.6 kg/h)?
Answer: The value was 0 (0-24% control).

Question: What about the “post-emergent herbicidal activity index” value (Cocklebur; 4 WAT, 11.2 kg/h) of the same molecule?
Answer: Its value is 0 (0-24% control).

Question: What about the “post-emergent herbicidal activity index” value (Cocklebur; 4 WAT, 56.0 kg/h) of the same molecule?
Answer: The value was 1 (25-49% control).

Question: What about the “post-emergent herbicidal activity index” value (Barnyardgrass; 2 WAT, 5.6 kg/h) of the same molecule?
Answer: Its value is 0 (0-24% control).

Question: What about the “post-emergent herbicidal activity index” value (Barnyardgrass; 4 WAT, 11.2 kg/h) of the same molecule?
Answer: Its value is 1 (25-49% control).

Question: And the “post-emergent herbicidal activity index” value (Barnyardgrass; 4 WAT, 56.0 kg/h)?
Answer: Its value is 0 (0-24% control).

Question: What about the “post-emergent herbicidal activity index” value (Lambsquarters; 2 WAT, 5.6 kg/h) of the same molecule?
Answer: Its value is 0 (0-24% control).

Question: What about the “post-emergent herbicidal activity index” value (Lambsquarters; 4 WAT, 11.2 kg/h) of the same molecule?
Answer: Its value is 0 (0-24% control).

Question: What about the “post-emergent herbicidal activity index” value (Lambsquarters; 4 WAT, 56.0 kg/h) of the same molecule?
Answer: Its value is 1 (25-49% control).

Question: And the “post-emergent herbicidal activity index” value (Morningglory; 2 WAT, 5.6 kg/h)?
Answer: Its value is 0 (0-24% control).

Question: And the “post-emergent herbicidal activity index” value (Morningglory; 4 WAT, 11.2 kg/h)?
Answer: The value was 0 (0-24% control).

Question: And the “post-emergent herbicidal activity index” value (Morningglory; 4 WAT, 56.0 kg/h)?
Answer: Its value is 1 (25-49% control).

Question: And the “post-emergent herbicidal activity index” value (Smartweed; 2 WAT, 5.6 kg/h)?
Answer: Its value is 0 (0-24% control).

Question: And the “post-emergent herbicidal activity index” value (Smartweed; 4 WAT, 11.2 kg/h)?
Answer: Its value is 0 (0-24% control).

Question: And the “post-emergent herbicidal activity index” value (Smartweed; 4 WAT, 56.0 kg/h)?
Answer: The value was 1 (25-49% control).

Question: How did the “post-emergent herbicidal activity index” value (Velvetleaf; 2 WAT, 11.2 kg/h) turn out when `C#CCNCP(=O)(OC(C)C#N)OC(C)C#N` (stereo not drawn) [Example 3, phosphonic acid, [(2-propnylamino)methyl]-,bis(1-cyanoethyl)ester] was run?
Answer: The value was 0 (0-24% control).

Question: What about the “post-emergent herbicidal activity index” value (Johnsongrass; 2 WAT, 11.2 kg/h) of the same molecule?
Answer: Its value is 0 (0-24% control).

Question: What about the “post-emergent herbicidal activity index” value (Downy Brome; 2 WAT, 11.2 kg/h) of the same molecule?
Answer: The value was 0 (0-24% control).

Question: What about the “post-emergent herbicidal activity index” value (Quackgrass; 2 WAT, 11.2 kg/h) of the same molecule?
Answer: Its value is 0 (0-24% control).

Question: What about the “post-emergent herbicidal activity index” value (Canada Thistle; 2 WAT, 11.2 kg/h) of the same molecule?
Answer: Its value is 0 (0-24% control).

Question: What about the “post-emergent herbicidal activity index” value (Yellow Nutsedge; 2 WAT, 11.2 kg/h) of the same molecule?
Answer: The value was 0 (0-24% control).

Question: And the “post-emergent herbicidal activity index” value (Cocklebur; 2 WAT, 11.2 kg/h)?
Answer: Its value is 0 (0-24% control).

Question: What about the “post-emergent herbicidal activity index” value (Barnyardgrass; 2 WAT, 11.2 kg/h) of the same molecule?
Answer: Its value is 2 (50-74% control).

Question: What about the “post-emergent herbicidal activity index” value (Lambsquarters; 2 WAT, 11.2 kg/h) of the same molecule?
Answer: Its value is 0 (0-24% control).

Question: What about the “post-emergent herbicidal activity index” value (Morningglory; 2 WAT, 11.2 kg/h) of the same molecule?
Answer: Its value is 0 (0-24% control).

Question: What about the “post-emergent herbicidal activity index” value (Smartweed; 2 WAT, 11.2 kg/h) of the same molecule?
Answer: Its value is 1 (25-49% control).
